From PubChem BioAssay (NCI)
Where “and” joins values, the source holds several entries; their conditions need not be identical. Equal entries are not always repeated.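 The compound was tested at five concentrations on cells cultured in 96-well plates, with a 48-hour exposure period. Here, GI50 denotes the concentration required for 50% inhibition of growth. TGI denotes the concentration required for complete inhibition of growth.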

Experiments:
Assay in all cases: NCI anticancer screen, dose series, 48 h
[1] = system: A498 renal
[2] = system: MOLT-4 leukemia
[3] = system: HCC-2998 colon
[4] = system: HOP-92 NSCLC
[5] = system: SK-MEL-2 melanoma
[6] = system: TK-10 renal
[7] = system: NCI-H23 lung
[8] = system: SW-620 colon

SMILES | TGI [1] | TGI [2] | TGI [3] | TGI [4] | TGI [5] | TGI [6] | TGI [7] | GI50 [1] | GI50 [2] | GI50 [3] | GI50 [8] | TGI [8] | GI50 [5] | GI50 [6] | GI50 [7] | GI50 [4]
CCOc1ccc2nc(NC(=O)C(=O)C(c3cnc4ccccc4n3)[N+](=O)[O-])sc2c1 (centres undefined) | > 100 µM | > 100 µM | > 100 µM | > 100 µM | > 100 µM | > 100 µM | > 100 µM | – | – | – | – | – | – | – | – | –
Cc1cc(N2CCOCC2)cc2[nH]c(-c3c(NC[C@@H](O)c4cccc(Cl)c4)cc[nH]c3=O)nc12 | 1.15 µM | 27.7 µM | 6.15 µM | – | 5.98 µM | 4.4 µM | 11.3 µM | 0.35 µM | 3.14 µM | 1.57 µM | 1.05 µM | 11.2 µM | 1.98 µM | 1.55 µM | 1.29 µM | –
Cc1cnc(C(=O)NNc2nc3sc4c(c3c(=O)n2C)C(C)CCC4)cn1 (centres undefined) | 7.8 µM | – | 6.22 µM | 4.57 µM | 8.88 µM | 11.9 µM | 10.3 µM | 1.89 µM | 0.346 µM | 0.529 µM | 0.408 µM | 6.66 µM | 1.02 µM | 0.608 µM | 0.719 µM | 0.724 µM
C=C1CC2(OC1=O)C(=O)Nc1ccccc12 (centres undefined) | 19.4 µM | 5.98 µM | 23.2 µM | 2.75 µM | 30 µM | 4.09 µM | 23.1 µM | 5.91 µM | 2 µM | 9.35 µM | 1.38 µM | 3.22 µM | 13.4 µM | 1.8 µM | 6.34 µM | 1.28 µM
C#CCOc1cccc(Nc2ncnc3cc(NC(=O)CCl)ccc23)c1 | 25.9 µM | 7.42 µM | 22.6 µM | 27.3 µM | 27.4 µM | 19.3 µM | 16.7 µM | 12.7 µM | 1.96 µM | 8.83 µM | 1.23 µM | 3.25 µM | 12.4 µM | 5.22 µM | 3.4 µM | 12.4 µM
COc1ccc2c(c1)C(=O)c1c-2n(CCCI)c(=O)c2cc([N+](=O)[O-])ccc12 | 3.6 µM and 0.95 µM | 0.971 µM and 0.117 µM | 6.41 µM and 21.9 µM | – | 47.2 µM and > 100 µM | 50 µM and > 100 µM | 0.988 µM and 1.27 µM | 0.609 µM and 0.157 µM | 0.06 µM and 0.0214 µM | 0.63 µM and 0.797 µM | 0.0524 µM and 0.0345 µM | 7.91 µM and 15.6 µM | 8.01 µM and 16.4 µM | 33.1 µM and 19.4 µM | 0.16 µM and 0.119 µM | 0.0738 µM and 0.715 µM
COc1cc(Nc2ncc(F)c(Nc3ccc4c(n3)N(COP(=O)(O)O)C(=O)C(C)(C)O4)n2)cc(OC)c1OC | 1.37 µM and 0.872 µM | > 62 µM | > 100 µM | 4.23 µM and 1.87 µM | 53.3 µM and > 10 µM | 3.06 µM | 22.7 µM and > 10 µM | 0.356 µM and 0.221 µM | 3.54 µM and 3.05 µM | 16.4 µM | 3.6 µM and 3.98 µM | > 84.4 µM | 5.81 µM | 0.774 µM and 0.768 µM | 2.51 µM and 2.57 µM | 1.25 µM and 0.345 µM
CC(=O)OCc1cc2ccccc2nc1C(Br)(Br)Br | 42.8 µM | 28.1 µM | 29.3 µM | 31.2 µM | 41.9 µM | 36.7 µM | 29.8 µM | – | – | – | – | 44.8 µM | – | – | – | –
Cc1ncc(C(=O)Nc2ccc(CN3CCN(C)CC3)c(C(F)(F)F)c2)cc1C#Cc1cnc(N)cc1C#N | 0.872 µM | 3.16 µM | 3.39 µM | 1.38 µM | 1.03 µM | 3.83 µM | 3.21 µM | 0.24 µM | 0.336 µM | 1.11 µM | 0.802 µM | 3.2 µM | 0.232 µM | 1.7 µM | 0.707 µM | 0.0911 µM
CN(C)CCCNC(=O)c1cc(NC(=O)c2cc(NC(=O)CCNS(=O)(=O)c3ccc4c(c3)C(=O)c3ccccc3C4=O)cn2C)cn1C | > 100 µM | > 100 µM | > 100 µM | > 100 µM | > 100 µM | > 100 µM | > 100 µM | > 100 µM | > 100 µM | > 100 µM | > 100 µM | > 100 µM | > 100 µM | 74.2 µM | > 100 µM | > 100 µM
CSc1nc(SC)c2c(CO)c(Br)n(Cc3ccccc3)c2n1 | 14.5 µM | > 100 µM | > 100 µM | 41.8 µM | > 100 µM | 79.4 µM | > 100 µM | – | – | – | – | > 100 µM | – | – | – | –
O=c1c(-c2ccccc2)coc2cc(OC/C(=N/O)c3ccccc3)ccc12 | 33.4 µM | > 100 µM | 27.2 µM | 47.4 µM | – | 38.4 µM | > 100 µM | 16.5 µM | 12.4 µM | 10.1 µM | 20.2 µM | 64.8 µM | – | 13.1 µM | > 100 µM | 15.3 µM
Cc1ccc(Cl)cc1NC(=O)c1sc2nc3c(cc2c1N)C(=O)CCC3 | > 100 µM | > 100 µM | > 100 µM | > 100 µM | > 100 µM | > 100 µM | – | 1.86 µM | > 100 µM | > 100 µM | 3.68 µM | > 100 µM | 3.14 µM | 8.99 µM | – | > 100 µM
COc1ccc(-c2ccc(-c3ccc(C(=N)N)o3)o2)cc1 | 7.48 µM | 4.3 µM | 3.23 µM | – | 21.7 µM | 21 µM | 18.3 µM | 1.76 µM | 1.2 µM | 1.58 µM | 0.532 µM | 2.43 µM | 5.71 µM | 7.97 µM | 4.34 µM | –
COC(=O)CC[C@H](Cc1ccccc1)NC(=O)c1csc([C@@H](C[C@H](C(C)C)N(C)C(=O)[C@@H](NC(=O)[C@H]2CCCCN2C)C(C)C)OC(C)=O)n1 | – | 10.5 µM | > 25 µM | > 25 µM | – | > 25 µM | > 25 µM | 0.00406 µM | < 0.0025 µM | 0.00386 µM | < 0.0025 µM | > 25 µM | – | > 25 µM | 0.00515 µM | 4.93 µM
OCC#Cc1ccccc1C#CCCCCCC#Cc1ccccc1C#CCO | 44.8 µM | 37.3 µM | – | 33.3 µM | – | 76.8 µM | 33.6 µM | 24.1 µM | 15.6 µM | – | 21.9 µM | 43.3 µM | – | 27.1 µM | 18.4 µM | 17.6 µM
